Source: ChEMBL document CHEMBL2311501, “Discovery and preliminary structure-activity relationship analysis of 1,14-sperminediphenylacetamides as potent and selective antimalarial lead compounds” (Bioorg Med Chem Lett, 2013)

Experiments:
[1] = system: L6; assay: Cytotoxicity against rat L6 cells at 10 uM after 72 hrs by Alamar blue assay; format: cell-based; details: l6, 72 h
[2] = system: Plasmodium falciparum; assay: Antiprotozoal activity against erythrocytic stages of Plasmodium falciparum K1 by [3H]hypoxanthine incorporation assay; format: functional, organism-based
[3] = system: Leishmania donovani; assay: Antiprotozoal activity against amastigote/ axenic stage of Leishmania donovani MHOM-ET-67/L82 after 72 hrs by Alamar blue assay; format: functional, organism-based; details: MHOM-ET-67/L82, 72 h
[4] = system: Trypanosoma cruzi; assay: Antiprotozoal activity against Trypanosoma cruzi Tulahuen C4 amastigotes after 96 hrs; format: functional, organism-based; details: Tulahuen C4, 96 h
[5] = system: Trypanosoma brucei rhodesiense; assay: Antiprotozoal activity against Trypanosoma brucei rhodesiense STIB 900 after 72 hrs by Alamar blue assay; format: functional, organism-based; details: STIB 900, 72 h
[6] = system: L6; assay: Cytotoxicity against rat L6 cells after 72 hrs by Alamar blue assay; format: cell-based; details: L6, 72 h

SMILES: O=C(Cc1ccccc1)NCCCNCCCCNCCCNC(=O)Cc1ccccc1
- Activity [1]: Non-toxic
- IC50 [2]: 0.14 µM
- IC50 [3]: 90 µM
- IC50 [4]: > 140 µM
- IC50 [5]: 96 µM
- IC50 [6]: > 140 µM

SMILES: COc1cc(CC(=O)NCCCNCCNCCCNC(=O)Cc2ccc(O)c(OC)c2)ccc1O
- IC50 [2]: > 6.8 µM
- IC50 [3]: > 120 µM
- IC50 [4]: > 120 µM
- IC50 [5]: 120 µM
- IC50 [6]: > 120 µM

SMILES: COc1cc(CC(=O)NCCCCNC(=O)Cc2ccc(O)c(OC)c2)ccc1O
- IC50 [2]: > 12 µM
- IC50 [3]: > 220 µM
- IC50 [4]: > 220 µM
- IC50 [5]: 210 µM
- IC50 [6]: > 220 µM

SMILES: O=C(Cc1ccccc1)NCCCCNC(=O)Cc1ccccc1
- IC50 [2]: > 15 µM
- IC50 [3]: > 280 µM
- IC50 [4]: > 280 µM
- IC50 [5]: 110 µM
- IC50 [6]: > 280 µM

SMILES: O=C(Cc1ccc(O)c(O)c1)NCCCCNC(=O)Cc1ccc(O)c(O)c1
- IC50 [2]: > 13 µM
- IC50 [3]: > 230 µM
- IC50 [4]: > 230 µM
- IC50 [5]: 3.3 µM
- IC50 [6]: 130 µM

SMILES: COc1cc(CC(=O)NCCCOCCOCCOCCCNC(=O)Cc2ccc(O)c(OC)c2)ccc1O
- IC50 [2]: > 9.1 µM
- IC50 [3]: 150 µM
- IC50 [4]: > 160 µM
- IC50 [5]: 110 µM
- IC50 [6]: > 160 µM

SMILES: O=C(Cc1ccccc1)NCCCOCCOCCOCCCNC(=O)Cc1ccccc1
- IC50 [2]: > 11 µM
- IC50 [3]: > 200 µM
- IC50 [4]: > 200 µM
- IC50 [5]: 63 µM
- IC50 [6]: > 200 µM

SMILES: O=C(Cc1ccc(O)c(O)c1)NCCCOCCOCCOCCCNC(=O)Cc1ccc(O)c(O)c1
- IC50 [2]: > 9.6 µM
- IC50 [3]: > 170 µM
- IC50 [4]: > 170 µM
- IC50 [5]: 5.2 µM
- IC50 [6]: 96 µM

SMILES: COc1cc(CC(=O)NCCN2CCOCC2)ccc1O
- IC50 [2]: > 12 µM
- IC50 [3]: > 220 µM
- IC50 [4]: > 220 µM
- IC50 [5]: 150 µM
- IC50 [6]: 210 µM

SMILES: COc1cc(CC(=O)NCCN(C)C)ccc1O
- IC50 [2]: > 14 µM
- IC50 [3]: > 250 µM
- IC50 [4]: > 250 µM
- IC50 [5]: 170 µM
- IC50 [6]: > 250 µM

SMILES: NCCCNCCCCNCCCNC(=O)Cc1ccccc1
- IC50 [2]: 35 µM
- IC50 [6]: 94 µM

SMILES: O=C(Cc1ccccc1)NCCCNCCCCNCCCNC(=O)C(F)(F)F
- IC50 [2]: 8 µM
- IC50 [6]: 110 µM

SMILES: O=C(Cc1cccc(O)c1)NCCCNCCCCNCCCNC(=O)Cc1cccc(O)c1
- Activity [1]: Non-toxic
- IC50 [2]: 0.17 µM
- IC50 [3]: > 130 µM
- IC50 [4]: > 130 µM
- IC50 [5]: 87 µM
- IC50 [6]: > 130 µM

SMILES: O=C(Cc1ccc(O)cc1)NCCCNCCCCNCCCNC(=O)Cc1ccc(O)cc1
- Activity [1]: Non-toxic
- IC50 [2]: 0.14 µM
- IC50 [3]: > 130 µM
- IC50 [4]: > 130 µM
- IC50 [5]: 86 µM
- IC50 [6]: 130 µM

SMILES: O=C(Cc1ccc(O)c(O)c1)NCCCNCCCCNCCCNC(=O)Cc1ccc(O)c(O)c1
- Activity [1]: Non-toxic
- IC50 [2]: 4.8 µM
- IC50 [3]: > 120 µM
- IC50 [4]: > 120 µM
- IC50 [5]: 3.2 µM
- IC50 [6]: 85 µM

SMILES: COc1ccc(OC)c(CC(=O)NCCCNCCCCNCCCNC(=O)Cc2cc(OC)ccc2OC)c1
- Activity [1]: Non-toxic
- IC50 [2]: 0.019 µM
- IC50 [3]: 35 µM
- IC50 [4]: 31 µM
- IC50 [5]: 38 µM
- IC50 [6]: 88 µM

SMILES: O=C(Cc1ccccc1O)NCCCNCCNCCCNC(=O)Cc1ccccc1O
- Activity [1]: Non-toxic
- IC50 [2]: 0.61 µM
- IC50 [3]: > 130 µM
- IC50 [4]: > 130 µM
- IC50 [5]: 49 µM
- IC50 [6]: > 130 µM

SMILES: COc1cc(CC(=O)NCCCCNCCCNC(=O)Cc2ccc(O)c(OC)c2)ccc1O
- IC50 [2]: > 8.5 µM
- IC50 [3]: > 150 µM
- IC50 [4]: > 150 µM
- IC50 [5]: 150 µM
- IC50 [6]: > 150 µM

SMILES: O=C(Cc1ccc(O)cc1)NCCCCNCCCNC(=O)Cc1ccc(O)cc1
- IC50 [2]: 3.6 µM
- IC50 [3]: > 170 µM
- IC50 [4]: > 170 µM
- IC50 [5]: 120 µM
- IC50 [6]: > 170 µM

SMILES: O=C(Cc1ccc(O)c(O)c1)NCCCCNCCCNC(=O)Cc1ccc(O)c(O)c1
- Activity [1]: Non-toxic
- IC50 [2]: 7.9 µM
- IC50 [3]: > 160 µM
- IC50 [4]: > 160 µM
- IC50 [5]: 5.9 µM
- IC50 [6]: 97 µM

SMILES: COc1cc(CC(=O)NCCCNCCNC(=O)Cc2ccc(O)c(OC)c2)ccc1O
- IC50 [2]: > 8.9 µM
- IC50 [3]: > 160 µM
- IC50 [4]: > 160 µM
- IC50 [5]: 110 µM
- IC50 [6]: > 160 µM

SMILES: O=C(Cc1cccc(O)c1)NCCCNCCNC(=O)Cc1cccc(O)c1
- IC50 [2]: > 10 µM
- IC50 [3]: > 180 µM
- IC50 [4]: > 180 µM
- IC50 [5]: 120 µM
- IC50 [6]: > 180 µM

SMILES: O=C(Cc1ccc(O)c(O)c1)NCCCNCCNC(=O)Cc1ccc(O)c(O)c1
- Activity [1]: Non-toxic
- IC50 [2]: > 9.4 µM
- IC50 [3]: > 170 µM
- IC50 [4]: > 170 µM
- IC50 [5]: 7.5 µM
- IC50 [6]: 140 µM

SMILES: COc1cc(CC(=O)NCCCNCCCCNCCCNC(=O)Cc2ccc(O)c(OC)c2)ccc1O
- Activity [1]: Non-toxic
- IC50 [2]: 0.89 µM
- IC50 [3]: > 120 µM
- IC50 [4]: > 120 µM
- IC50 [5]: 78 µM
- IC50 [6]: > 120 µM

SMILES: O=C(Cc1ccccc1O)NCCCNCCCCNCCCNC(=O)Cc1ccccc1O
- Activity [1]: Non-toxic
- IC50 [2]: 0.0086 µM
- IC50 [3]: 110 µM
- IC50 [4]: > 130 µM
- IC50 [5]: 51 µM
- IC50 [6]: > 130 µM

SMILES: COc1cc([C@@H]2c3cc4c(cc3[C@H](O)[C@H]3COC(=O)[C@H]23)OCO4)cc(OC)c1OC [PODOFILOX]
- IC50 [6]: 0.019 µM
